{"source": "patent US9308244B2", "about": "“Combination therapy using active immunotherapy” (immatics Biotechnologies GmbH, priority 2007, dated 2016)", "key": {"[1]": {"test_system": "primary clear cell renal cell carcinoma (ccRCC)", "assay": "mRNA expression in primary ccRCC tumor tissue of a patient treated with sorafenib before surgery", "format": "in vivo, human", "procedure": "mRNA expression was measured as described in 1.1 except that mRNA from 20 primary clear cell renal cell carcinoma (ccRCC) samples of patients not treated with TKIs and 1 locally recurring ccRCC tumor sample of a patient having received sorafenib treatment (800 mg Nexavar™ per day starting 35 days before and stopping 2 days before surgery) previous to surgery were included in this analysis.\nTumor tissue specimens were snap-frozen in liquid nitrogen immediately after surgery and later homogenized with mortar and pestle under liquid nitrogen. Total RNA was prepared from these samples using TRIzol (Invitrogen) or TRI Reagent (Fermentas) followed by a cleanup with RNeasy (QIAGEN); both methods were performed according to the manufacturers' protocols.\nGene expression analysis of the tumor samples was performed by Affymetrix Human Genome (HG) U133A or HG-U133 Plus 2.0 oligonucleotide microarrays (Affymetrix, Santa Clara, Calif., USA). A normal reference kidney sample was hybridized to both array types to achieve direct comparability of all samples.\nBriefly, double-stranded cDNA was synthesized from 5-8 μg of total RNA, using SuperScript RTII (Invitrogen) and the oligo-dT-T7 primer (MWG Biotech, Ebersberg, Germany) as described in the manual. […] Pairwise comparisons were calculated using the respective normal reference kidney array as baseline. […] Relative expression values were calculated from the signal log ratios given by the software and the normal kidney sample was arbitrarily set to 1.0."}, "human CD8+ T-cells": {"test_system": "human CD8+ T-cells", "assay": "Artificial APC (pMHC/anti-CD28 bead) priming and expansion of isolated human CD8+ T-cells, MLA-001 tetramer readout", "format": "cell-based", "details": "three stimulation cycles, high and low density pMHC, absence of natural antigen presenting cells"}, "[2]": {"test_system": "HLA-A*02+ PBMCs (CD4+ and CD8+ effector cells)", "details": "absence of target cells or autologous target cells", "procedure": "Two fresh buffy coat (HLA-A*02+ and HLA-A*02−) were obtained from the Katharinenhospital Stuttgart. PBMCs were isolated by standard density gradient isolation and incubated overnight in T-cell medium (TCM) for human in vitro priming as in WP03 #4. Ca2+ and Mg2+ free PBS (Cambrex) washed HLA-A*02+ PBMCs were labeled at 1×10^7 cells/ml with 1 μM CFSE (Fluka, Buchs, Germany) at 37° C. for 4 minutes. Labeling was stopped by adding the same volume heat inactivated FCS (Invitrogen) and labeled cells were washed in TCM. Irradiation of target or feeder cells, if indicated, was performed at 33 Gy using a 1000 Elite gammacell (MDS Nordion, Ottawa, Canada). Stock solutions of sorafenib tosylate and sunitinib malate were prepared in DMSO (Merck, Darmstadt, Germany) and frozen aliquoted at −80° C. Mixed lymphocyte reactions were performed by coculturing 2×10^5 CFSE labeled effector plus 2×10^5 irradiated target cells as indicated per well of 96 well round bottom plates in 200 μl TCM in the presence of indicated concentrations of sorafenib, sunitinib or DMSO at 37° C. and 5% CO2 (day 1). On day 4, 100 μl supernatant was removed and 100 μl TCM supplemented with the original concentration of TKIs was added. […] Cells were washed, fixed in PFEA containing 1% formaldehyde (Fluka) and analyzed on a FACSCalibur (BD). […]"}, "[3]": {"test_system": "OVA-001 specific CD8+ T-cells", "format": "in vivo, C57BL/6 mice"}, "[4]": {"details": "RCC of one patient, 800 mg Nexavar per day from 35 to 2 days before surgery, normal kidney = 1.0"}, "[5]": {"details": "RCC of one patient, 800 mg Nexavar per day from 35 to 2 days before surgery, normal kidney = 1.0, listed as sorafenib"}}, "note": "Entries after “also recorded” stand apart in the source; their conditions may differ."}
{"smiles": "CNC(=O)c1cc(Oc2ccc(NC(=O)Nc3ccc(Cl)c(C(F)(F)F)c3)cc2)ccn1", "note": "[Sorafenib, 4-(4-{3-[4-Chloro-3-(trifluoromethyl)phenyl]ureido}phenoxy)-N-methylpyrid-ine-2-carboxamide]", "values": [{"measurement": "Expression relative to normal reference kidney: ADFP", "setting": "[1]; [4]", "result": 5.7}, {"measurement": "Expression relative to normal reference kidney: APOL1", "setting": "[1]; [4]", "result": 19.7}, {"measurement": "Expression relative to normal reference kidney: CCND1", "setting": "[1]; [4]", "result": 3.2}, {"measurement": "Expression relative to normal reference kidney: GUCY1A3", "setting": "[1]; [4]", "result": 0.5}, {"measurement": "Expression relative to normal reference kidney: HLA-A", "setting": "[1]; [4]", "result": 0.9}, {"measurement": "Expression relative to normal reference kidney: HLA-B", "setting": "[1]; [4]", "result": 2.1}, {"measurement": "Expression relative to normal reference kidney: HLA-C", "setting": "[1]; [4]", "result": 1.0}, {"measurement": "Expression relative to normal reference kidney: HLA-DPB1", "setting": "[1]; [4]", "result": 4.0}, {"measurement": "Expression relative to normal reference kidney: HLA-DQB1", "setting": "[1]; [4]", "result": 168.9}, {"measurement": "Expression relative to normal reference kidney: HLA-DRB1", "setting": "[1]; [4]", "result": 2.8}, {"measurement": "Expression relative to normal reference kidney: KIAA0367", "setting": "[1]; [4]", "result": 1.2}, {"measurement": "Expression relative to normal reference kidney: MET", "setting": "[1]; [4]", "result": 9.8}, {"measurement": "Expression relative to normal reference kidney: MMP7", "setting": "[1]; [4]", "result": 6.1}, {"measurement": "Expression relative to normal reference kidney: MUC1", "setting": "[1]; [4]", "result": 0.3}, {"measurement": "Expression relative to normal reference kidney: PSMB8", "setting": "[1]; [4]", "result": 3.5}, {"measurement": "Expression relative to normal reference kidney: PSMB9", "setting": "[1]; [4]", "result": 5.7}, {"measurement": "Expression relative to normal reference kidney: RGS5", "setting": "[1]; [4]", "result": 1.5}, {"measurement": "Expression relative to normal reference kidney: TAP1", "setting": "[1]; [4]", "result": 2.1}, {"measurement": "Expression relative to normal reference kidney: GUCY1A3", "setting": "[1]; [5]", "result": "at the lower boundary of the range"}, {"measurement": "Expression relative to normal reference kidney: RGS5", "setting": "[1]; [5]", "result": "at the lower boundary of the range"}, {"measurement": "Expression profile of tumor associated antigens or their HLA presentation in vivo vs range of untreated ccRCC (in words)", "setting": "[1]; one sorafenib-treated patient vs 20 untreated ccRCC, range = mean ± one standard deviation", "result": "lie within this range for most antigens; also recorded: do not provide any evidence for a potential influence"}, {"measurement": "Priming and expansion of MLA-001 specific CD8+ T-cells (% tetramer+ among CD8+ lymphocytes, total number per well)", "setting": "human CD8+ T-cells", "result": "no concentration-dependent influence; also recorded: not altered"}, {"measurement": "Baseline proliferation of effector cells", "setting": "[2]", "result": "did not increase"}, {"measurement": "Reversibility of the immunosuppressive influence after discontinuation of treatment", "setting": "[3]; mouse, in vivo", "result": "rapidly reversed"}, {"measurement": "Numbers of OVA-001-specific T-cells", "setting": "[3]; treatment stopped 48 h before first immunization, 80 mg/kg bw sunitinib, both sorafenib dosages, differences not significant", "result": "Reduced numbers"}]}
